Assay results from patent US20170305922A1, “CARM1 INHIBITORS AND USES THEREOF” (Epizyme, Inc., priority 2014, published 2017).

Tests used:
[1] = tested on: asymmetric di-methyl PABP1 in RKO cells; test: RKO methylation assay: In Cell Western (ICW) for asymmetric di-methyl PABP1 (PABP1me2a); settings: Cellular-based (PABP1me2a) ICW (In Cell Western) assay
Text: RKO adherent cells were purchased from ATCC (American Type Culture Collection), Manassas, Va., USA. DMEM/Glutamax medium, penicillin-streptomycin, heat inactivated fetal bovine serum, 0.05% trypsin and D-PBS were purchased from Life Technologies, Grand Island, N.Y., USA. Odyssey blocking buffer, 800CW goat anti-rabbit IgG (H+L) antibody, and Licor Odyssey infrared scanner were purchased from Licor Biosciences, Lincoln, Nebr., USA. Asymmetric di-methyl PABP1 antibody was purchased from Cell Signaling Technology, Danvers, Mass., USA. Methanol was purchased from VWR, Franklin, Mass., USA. 10% Tween 20 was purchased from KPL, Inc., Gaithersburg, Md., USA. Paraformaldehyde (PFA) was purchased from EM Sciences. DRAQ5 was purchased from Biostatus Limited, Leicestershire, UK.
RKO adherent cells were maintained in growth medium (DMEM/Glutamax medium supplemented with 10% v/v heat inactivated fetal bovine serum and 100 units/mL penicillin-streptomycin) and cultured at 37° C. under 5% CO2.
Cell treatment, In Cell Western (ICW) for detection of asymmetric di-methyl PABP1 and DNA content: RKO cells were seeded in assay medium at a concentration of 30,000 cells per mL to a poly-D-lysine coated 384 well culture plate (BD Biosciences 356697) with 50 μL per well. Compound (100 nL) from a 96-well source plate was added directly to 384 well cell plate. Plates were incubated at 37° C., 5% CO2 for 48 hours. After two days of incubation, plates were brought to room temperature outside of the incubator for ten minutes and blotted on paper towels to remove cell media. Cells were fixed for 20 minutes at room temperature by adding 50 ul of 8% PFA followed by aspiration of supernatant with the Biotek EL406 plate washer. Cells were then permeabilized by addition of 50 μL of ice cold 100% methanol directly to each well and incubated for 30 min at room temperature. After 30 min, plates were transferred to a Biotek EL406 plate washer and washed 2 times with 100 μL per well of wash buffer (1×PBS). Next 60 μL per well of Odyssey blocking buffer (Odyssey Buffer with 0.1% Tween 20 (v/v)) were added to each plate and incubated 1 hour at room temperature. Blocking buffer was removed and 20 μL per well of primary antibody was added (asymmetric-methyl PABP1) diluted 1:400 in Odyssey buffer with 0.1% Tween 20 (v/v)) and plates were incubated overnight (16 hours) at 4° C. Plates were washed 5 times with 100 μL per well of wash buffer. Next 20 μL per well of secondary antibody was added (1:800 800CW goat anti-rabbit IgG (H+L) antibody, 1:2000 DRAQ5 in Odyssey buffer with 0.1% Tween 20 (v/v)) and incubated for 1 hour at room temperature. The plates were washed 5 times with 100 μL per well wash buffer then 2 times with 100 μL per well of water. Plates were allowed to dry at room temperature then imaged on the Licor Odyssey machine which measures integrated intensity at 700 nm and 800 nm wavelengths. Both 700 and 800 channels were scanned.
First, the ratio for each well was determined by:
Each plate included fourteen control wells of DMSO only treatment (minimum inhibition) as well as fourteen control wells for maximum inhibition treated with 20 μM of a reference compound. The average of the ratio values for each control type was calculated and used to determine the percent […] for each test well in the plate. Reference compound was serially diluted three-fold in DMSO for a total of nine test concentrations, beginning at 20 μM.
Percent inhibition was determined and IC50 curves were generated using triplicate wells per concentration of compound.

Human CARM1 (PRMT4) = molecular target: T1, Human CARM1 (PRMT4) (Homo sapiens, UniProt Q86X55); test: CARM1 enzyme assay on peptide substrates (3H-SAM Flashplate); settings: Biochemical assay; CARM1 0.25 nM, 3H-SAM 30 nM, peptide 250 nM; read-out: Biochem IC50
T1 construct: Flag-CARM1-His was eluted with 200 ug/ml FLAG peptide in buffer A; made in house; host or cells: HEK 293F cells infected with recombinant baculovirus (pFastBacMam)
T1 sequence (Q86X55 1-585 isoform Q86X55-1): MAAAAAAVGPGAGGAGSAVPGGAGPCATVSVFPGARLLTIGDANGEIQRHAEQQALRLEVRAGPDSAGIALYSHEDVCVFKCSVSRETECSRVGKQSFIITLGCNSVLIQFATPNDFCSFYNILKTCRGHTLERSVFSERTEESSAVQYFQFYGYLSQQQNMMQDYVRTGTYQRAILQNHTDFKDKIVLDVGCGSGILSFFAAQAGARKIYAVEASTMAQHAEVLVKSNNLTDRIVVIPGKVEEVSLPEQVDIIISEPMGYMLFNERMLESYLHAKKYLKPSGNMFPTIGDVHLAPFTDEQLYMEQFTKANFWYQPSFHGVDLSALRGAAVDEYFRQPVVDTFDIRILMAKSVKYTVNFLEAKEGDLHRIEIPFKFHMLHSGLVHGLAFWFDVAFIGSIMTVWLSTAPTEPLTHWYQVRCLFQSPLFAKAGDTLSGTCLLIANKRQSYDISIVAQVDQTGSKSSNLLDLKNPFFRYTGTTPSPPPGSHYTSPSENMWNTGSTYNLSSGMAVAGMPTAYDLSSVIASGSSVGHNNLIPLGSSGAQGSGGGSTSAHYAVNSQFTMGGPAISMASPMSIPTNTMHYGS
Text: S-adenosylmethionine (SAM), S-adenosylhomocysteine (SAH), bicine, Tween20, dimethylsulfoxide (DMSO), bovine skin gelatin (BSG), sodium butyrate and Tris(2-carboxyethyl)phosphine hydrochloride solution (TCEP) were purchased from Sigma-Aldrich at the highest level of purity possible. ^3H-SAM was purchase from American Radiolabeled Chemicals with a specific activity of 80 Ci/mmol. 384-well streptavidin Flashplates were purchased from PerkinElmer.
Peptide representative of human histone H3 residues 16-30 was synthesized with an N-terminal linker-affinity tag motif and a C-terminal amide cap by 21st Century Biochemicals. […] The sequence was Biot-Ahx-[…]-amide and contained a monomethylated arginine at position 26 (SEQ ID NO.:1).
The gene sequence encoding isoform1 containing a deletion of amino acids 539-561 was amplified subsequently and subcloned into pFastBacMam (Viva Biotech).
Recombinant baculovirus were generated according to Bac-to-Bac kit instructions (Life Technologies). Protein over-expression was accomplished by infecting exponentially growing HEK 293F cell culture at 1.3×10^6 cell/ml with virus (MOI=10) in the presence of 8 mM sodium butyrate. Infections were carried out at 37° C. for 48 hours, harvested by centrifugation, and stored at −80° C. for purification.
Column was washed with 500 mM NaCl in buffer A and Flag-CARM1-His was eluted with 200 ug/ml FLAG peptide in buffer A. Pooled fractions were dialyzed in 20 mM Tris, 150 mM NaCl, 5% glycerol and 1 mM DTT, pH 7.8.
The assays were all performed in a buffer consisting of 20 mM Bicine (pH=7.6), 1 mM TCEP, 0.005% BSG, and 0.002% Tween 20, prepared on the day of use. Compounds in 100% DMSO (1 ul) were spotted into a polypropylene 384-well V-bottom plates (Greiner) using a Platemate Plus outfitted with a 384-channel head (Thermo Scientific). DMSO (1 ul) was added to Columns 11, 12, 23, 24, rows A-H for the maximum signal control and 1 ul of SAH, a known product and inhibitor of CARM1, was added to columns 11, 12, 23, 24, rows I-P for the minimum signal control. A cocktail (40 ul) containing the CARM1 enzyme was added by Multidrop Combi (Thermo-Fisher). The compounds were allowed to incubate with CARM1 for 30 min at room temperature, then a cocktail (10 ul) containing ^3H-SAM and peptide was added to initiate the reaction (final volume=51 ul). The final concentrations of the components were as follows: CARM1 was 0.25 nM, ^3H-SAM was 30 nM, peptide was 250 nM, SAH in the minimum signal control wells was 1 mM, and the DMSO concentration was 2%. The assays were stopped by the addition of non-radiolabeled SAM (10 ul) to a final concentration of 300 uM, which dilutes the ^3H-SAM to a level where its incorporation into the peptide substrate is no longer detectable. 50 ul of the reaction in the 384-well polypropylene plate was then transferred to a 384-well Flashplate and the biotinylated peptides were allowed to bind to the streptavidin surface for at least 1 hour before being washed once with 0.1% Tween20 in a Biotek ELx405 plate washer. The plates were then read in a PerkinElmer TopCount plate reader to measure the quantity of ^3H-labeled peptide bound to the Flashplate surface, measured as disintegrations per minute (dpm) or alternatively, referred to as counts per minute (cpm).
where dpm=disintegrations per minute, cmpd=signal in assay well, and min and max are the respective minimum and maximum signal controls.
where top and bottom are the normally allowed to float, but may be fixed at 100 or 0 respectively in a 3-parameter fit. The Hill Coefficient normally allowed to float but may also be fixed at 1 in a 3-parameter fit. Y is the % inhibition and X is the compound concentration.

IC50 ([1]; Homo sapiens, RKO, 48 h) [nM]	IC50 (Human CARM1 (PRMT4)) [nM]	IC50 ([1]; 48 hours) [nM]	Structure (SMILES)
> 20000	60.7	–	CNC[C@@H](O)COc1ccc(Cl)c(-c2nc(-c3c(C)noc3C)c(Cl)c(N3Cc4cnn(C)c4C3)n2)c1 [Example 11]
81	4.1	–	CNC[C@@H](O)COc1ccc(Cl)c(-c2nc(-c3c(C)noc3C)c(C)c(N3Cc4c(C)nn(C(C)C)c4C3)n2)c1 [Example 12]
74	3.6	–	CNC[C@@H](O)COc1ccc(Cl)c(-c2nc(-c3c(C)noc3C)c(C)c(N3Cc4c(C)nn(CC(F)(F)F)c4C3)n2)c1 [Example 13]
44	2.2	–	CNC[C@@H](O)COc1ccc(Cl)c(-c2nc(-c3c(C)noc3C)c(C)c(N3Cc4cc(C(F)(F)F)cnc4C3)n2)c1 [Example 14]
140	1.9	–	CNC[C@@H](O)COc1ccc(F)c(-c2nc(-c3c(C)noc3C)c(C)c(N3Cc4cn(C5CC5)nc4C3)n2)c1 [Example 15]
56	2.1	–	CNC[C@@H](O)COc1ccc(F)c(-c2nc(-c3c(C)noc3C)c(C)c(N3Cc4cnn(C5CC5)c4C3)n2)c1 [Example 16]
162	2.4	–	CNC[C@@H](O)COc1ccc(F)c(-c2nc(-c3c(C)noc3C)c(C)c(N3Cc4cn(CC(F)(F)F)nc4C3)n2)c1 [Example 17]
69	3.1	–	CNC[C@@H](O)COc1ccc(F)c(-c2nc(-c3c(C)noc3C)c(C)c(N3Cc4cnn(CC(F)(F)F)c4C3)n2)c1 [Example 18]
125	7.4	–	CNC[C@@H](O)COc1ccc(Cl)c(-c2nc(-c3c(C)noc3C)c(C)c(N3CC4(CCC(F)CC4)C3)n2)c1 [Example 20]
179	16.6	–	CNC[C@@H](O)COc1ccc(C(F)(F)F)c(-c2nc(-c3c(C)noc3C)c(C)c(N3CC4(CCOCC4)C3)n2)c1 [Example 21]
181	6.3	–	CNC[C@@H](O)COc1ccc(C(F)(F)F)c(-c2nc(-c3c(C)noc3C)c(C)c(N3Cc4cn(C(C)C)nc4C3)n2)c1 [Example 22]
111	4.7	–	CNC[C@@H](O)COc1ccc(C(F)(F)F)c(-c2nc(-c3c(C)noc3C)c(C)c(N3Cc4cnn(C(C)C)c4C3)n2)c1 [Example 23]
188	5.4	–	CNC[C@@H](O)COc1ccc(C(F)(F)F)c(-c2nc(-c3c(C)noc3C)c(C)c(N3Cc4cccnc4C3)n2)c1 [Example 24]
452	5.6	–	CNC[C@@H](O)COc1ccc(Cl)c(-c2nc(-c3c(C)noc3C)c(C)c(N3CCC4(C3)OCCO4)n2)c1 [Example 25]
66	3.4	–	CNC[C@@H](O)COc1ccc(Cl)c(-c2nc(-c3c(C)noc3C)c(C)c(N3Cc4cnn(CC(F)F)c4C3)n2)c1 [Example 26]
115	3.7	–	CNC[C@@H](O)COc1ccc(Cl)c(-c2nc(-c3c(C)noc3C)c(C)c(N3Cc4cn(CC(F)F)nc4C3)n2)c1 [Example 27]
41	3.2	–	CNC[C@@H](O)COc1ccc(Cl)c(-c2nc(-c3c(C)noc3C)c(C)c(N3Cc4cnn(C(C)C)c4C3)n2)c1 [Example 28]
263	10.2	–	CNC[C@@H](O)COc1ccc(Cl)c(-c2nc(-c3c(C)noc3C)c(C)c(N3C[C@H]4CN(CC(F)F)C[C@@H]4C3)n2)c1 [Example 29]
166	7	–	CNC[C@@H](O)COc1ccc(Cl)c(-c2nc(-c3c(C)noc3C)c(C)c(N3C[C@H]4CN(CC(F)F)C[C@H]4C3)n2)c1 [Example 30]
294	–	–	CNC[C@H](O)COc1ccc(Cl)c(-c2nc(-c3c(C)noc3C)c(C)c(N3CC4(CCN(C(=O)OC)CC4)C3)n2)c1 [Example 248]
53.9	–	–	CNC[C@@H](O)COc1ccc(Cl)c(-c2nc(-c3c(C)noc3C)c(C)c(N3CC4(CCN(C(=O)OC)CC4)C3)n2)c1 [Example 261]
–	–	66.7	CNC[C@@H](O)COc1ccc(Cl)c(-c2nc(-c3c(C)noc3C)c(C)c(N3CC4(CCN(C(=O)OC)CC4)C3)n2)c1 [Example 292]
